Values joined by “and” are separate entries in the source; they are usually repeats but may differ in a detail not shown here. Identical values can stand only once. Like-named read-outs stand apart in the source and are kept apart here.
How the values were obtained:
AR [1] = tested on: AR
Description: (§1) To examine the effects of androgen-deprivation, organoids established from normal prostate epithelium were cultured and passaged in the presence or absence of DHT. […] To assess the molecular response to androgen-deprivation, quantitative RT-PCR (qPCR) analysis of the expression of several known AR-regulated genes was performed at passage 1.

[2] = tested on: organoids established from normal prostate epithelium; details: absence of DHT versus presence of DHT, after passaging
Description: as §1

AR-regulated genes = details: after DHT withdrawal, passage 1
Description: as §1
For RNA extraction, 4-6 wells of organoids were pooled, pelleted, and dissolved in Trizol reagent prior to processing by the MagMAX 96 Total RNA Isolation Kit (Ambion, Life Technologies). 300-500 ng of RNA was used for cDNA synthesis using the Superscript First Strand Synthesis System (Invitrogen). Quantitative real-time PCR was carried out using SYBR green master mix reagent (QIAGEN) in the Realplex2 instrument (Eppendorf). cDNA samples were diluted 1:5 to 1:10 for all analyses, which were performed in triplicate. Expression values were obtained using the ΔΔCT method and normalized to GAPDH expression; average values are shown as the mean±standard deviation (SD).

AR [3] = details: NPK-CARN organoids
Description: In particular, Nkx3.1^CreERT2/+; Pten^flox/flox; Kras^LSL-G12D/+; R26R-YFP/+ mice (termed NPK) were castrated and induced with tamoxifen, so that combined Pten deletion, Kras^G12D activation, and YFP expression occurred specifically in CARNs (FIG. 33A). Transformed lineage-marked CARNs were isolated by flow cytometry on the basis of their YFP expression, and used for organoid culture.
For immunostaining, sections underwent antigen-retrieval by boiling in citrate acid-based antigen unmasking solution (Vector Labs) for 10 min. Primary antibodies were applied to sections and incubated at 4° C. overnight in a humidified chamber. Alexa Fluors (Life Technologies) were used for secondary antibodies. Tyramide amplification (Life Technologies) or ABC Elite (Vector Labs) kits were used for signal detection.

[4] = tested on: organoids from Nkx3.1^CreERT2/+; Pten^flox/flox; R26R-YFP/+ (NP) mice; experiment: Drug treatment of NP tumor organoids: efficiency of organoid formation; type: cell-based, mouse; details: 1 nM MK-8669; for Frequency (efficiency of organoid formation), Average: average of 3 wells; for Frequency (efficiency of organoid formation), Average / Total organoids counted / Frequency (efficiency of organoid formation): 1000 cells/well, 100 nM DHT control, or without DHT: 10 μM enzalutamide; for Total organoids counted / Frequency (efficiency of organoid formation): single wells, counted after 8 days; for Frequency (efficiency of organoid formation): third passage, embedded in Matrigel; for effect on organoid formation: treatment cultures without DHT, 10 μM enzalutamide
Description: Next it was determined whether tumor organoids could be utilized to assess drug response, using organoids from Nkx3.1^CreERT2/+; Pten^flox/flox; R26R-YFP/+ (NP) mice, which were previously used to analyze therapeutic response in vivo [48]. […] To assess therapeutic response, YFP-positive prostate cells were isolated from tamoxifen-induced NP mice for organoid culture, and subsequently dissociated organoids at the third passage to single cell suspensions, followed by plating at 1,000 cells/well embedded within Matrigel/culture medium. Control cultures were established in the presence of DHT, while treatment cultures were established without DHT.
For serial passaging experiments, organoids were passaged at a 1:4 dilution every 1-2 weeks with 0.25% trypsin for 5 minutes at 37° C., followed by mechanical dissociation to nearly single-cell suspensions. Organoids were frozen in complete media with 50% FBS and 10% DMSO. The efficiency of organoid formation was calculated by averaging the number of organoids visible in each well after 7 days of growth using a 10× objective. For statistical analyses, efficiency percentages were arcsin converted to perform unpaired two-tailed Student's t-tests.
The embedding method was used to culture organoids for drug treatment experiments. […] 40 μl of the resulting cell suspension containing 500-3,000 dissociated cells were mixed with 60 μl of Matrigel, and the mixture pipetted around the rim of wells in a 24 well plate. The mixture was allowed to solidify for 30 minutes at 37° C., prior to addition of 400 μl organoid culture medium to each well, with or without supplementation with 100 nm DHT in the presence or absence of drugs. The culture medium was changed every other day, and organoids were counted after 8 days. Drugs were dissolved in DMSO to generate a final concentration of 0.1% in all drug-treated groups. Drug concentrations were as follows: 100 nM DHT, no additions, 0.1% DMSO, 10 μM enzalutamide (provided by Charles Sawyers, Memorial Sloan-Kettering Cancer Center), 1 nM MK-8669 (provided by Cory Abate-Shen, Columbia University Medical Center).

Row | SMILES | AR immunostaining (AR [1]; in the absence of DHT) | AR immunostaining (AR [1]; in the presence of DHT) | organoid size [2] | expression of Fkbp5, Mme, and Psca (AR-regulated genes) | expression of Igfbp3 (AR-regulated genes) | AR localisation (AR [3]; in the absence of DHT) | AR localisation (AR [3]; in the presence of DHT) | Frequency (efficiency of organoid formation), Average [4] [%] | Total organoids counted [4] | Frequency (efficiency of organoid formation) [4] | effect on organoid formation [4]
1 | C[C@]12CCC(=O)C[C@@H]1CC[C@@H]1[C@@H]2CC[C@]2(C)[C@@H](O)CC[C@@H]12 [DHT, dihydrotestosterone] | weaker and mostly cytoplasmic | nuclear | reduced in size | down-regulated | up-regulated | mostly cytoplasmic AR | nuclear AR | 17.4 | 166 and 194 and 162 | 16.6% and 19.4% and 16.2% | –
2 | CNC(=O)c1ccc(N2C(=S)N(c3ccc(C#N)c(C(F)(F)F)c3)C(=O)C2(C)C)cc1F [Enzalutamide, enzalutamide] | – | – | – | – | – | – | – | 14.9 | 134 and 163 and 150 | 13.4% and 16.3% and 15.0% | minimal effects
3 | CO[C@H]1C[C@@H]2CC[C@@H](C)[C@@](O)(O2)C(=O)C(=O)N2CCCC[C@H]2C(=O)O[C@H]([C@H](C)C[C@@H]2CC[C@@H](OP(C)(C)=O)[C@H](OC)C2)CC(=O)[C@H](C)/C=C(\C)[C@@H](O)[C@@H](OC)C(=O)[C@H](C)C[C@H](C)/C=C/C=C/C=C/1C [MK-8669, ridaforolimus] | – | – | – | – | – | – | – | 15.9 | 179 and 154 and 145 | 17.9% and 15.4% and 14.5% | minimal effects
